Data set [1] is described as follows: Characterisation of prodrug LNP: particle size, PdI, prodrug entrapment. Type of data set: physicochemical. Particulars: for % Entrap (Dex/Calcitriol): Calcitriol: Table 2, calcitriol prodrug; for PdI / Size: Table 2, prodrug LNP. How it is done:
Lipid conjugates (prodrugs) were dissolved in ethanol, isopropanol, DMSO or THF. LNP were prepared by rapidly mixing DSPC or DMPC, cholesterol, prodrugs, and PEG-DSPE (in a molar ratio of 49/40/10/1) with phosphate-buffered saline (PBS) using a cross-junction mixer. Formulations were dialyzed against PBS to remove residual ethanol. In cases where a peptide antigen, such as ovalbumin peptide […] (OVA), was co-formulated within the LNP, the peptide is dissolved in PBS and rapidly mixed with the lipid phase. Dialysis or tangential flow filtration was used to remove all unentrapped peptide.
(§1) The physiochemical properties of the LNPs prepared as described above were subsequently characterized. Particle size was determined by dynamic light scattering using a Malvern Zetasizer Nano ZS (Malvern, UK) following buffer exchange into phosphate-buffered saline. Number-weighted size and distribution data was used. Lipid concentrations were determined by measuring total cholesterol using the Cholesterol E enzymatic assay kit from Wako Chemicals USA (Richmond, VA). mRNA entrapment was determined using a modified Quanti-iT Ribogreen assay (ThermoFisher, Waltham, MA). LNP-mRNA systems were incubated in the presence or absence of 1% Triton X-100 (Sigma-Aldrich, St. Louis, MO). Fluorescence intensities (Ex/Em: 480/520 nm) were compare to determine % mRNA entrapment.

The conditions of data set [2]: human, plasma, 2 h.
Data set [3] can be described thus: Characterisation of LNP co-loaded with mRNA and prodrugs: Z-Ave, PDI, mRNA and prodrug entrapment. It counts as physicochemical. How it is done:
To prepare LNPs that contain mRNA that codes for the antigen, ionizable lipid such as INT-A002 (see page 32 of co-owned WO 2021/026647; Application No. PCT/CA2020/051098, which is incorporated herein by reference), DSPC, cholesterol and PEG-DMG were dissolved in ethanol. Prodrugs were dissolved in ethanol, isopropanol, DMSO or THF. The mRNA was dissolved in 10 mM citrate or 25 mM acetate buffer at pH 4.0. LNP were prepared by rapidly mixing the lipid components in ethanol (in molar ratio of 45/8.5/35/1.5/10 of INT-A002/DSPC/chol/PEG-DMG/prodrugs) with nucleic acids in aqueous buffer at a volumetric flow rate ratio of 1:3 (ethanol to aqueous, combined flow rate 28 ml/min) at room temperature. The product was then dialyzed against 1× phosphate-buffered saline (PBS) at pH 7.4 for 24 hours to remove residual ethanol and to raise the pH.
as §1

In data set [4] the test system is CD4+ T cells from OT-II mice. Put plainly: Antigen-specific OT-II CD4+ T cell proliferation with OVA peptide and prodrug-treated BMDCs. Type of data set: cell-based. Particulars: BMDCs pre-treated with prodrug LNP, pulsed with free OVA peptide. The source says:
CD4 T cells were collected from OT-II mice. These mice have T cell receptors on CD4+ T cells engineered to bind and react to Ovalbumin 323-339 peptide fragment (OVA) when presented on I-Ab MHC Class II. When APCs are loaded with OVA and mixed with these T cells, a robust proliferation of T cells is observed (akin to having an antigen-specific immune disorder).
For the antigen specific model, splenocytes were isolated from OT-II mice (B6.Cg-Tg (TcraTcrb) 425Cbn/J; Jackson Laboratories). CD4+ T cells were purified by CD4 positive selection (EasySep™ Mouse CD4+ T Cell Isolation Kit, Catalog #19852, Stem Cell Technologies) and labelled with 10 μM CFSE and plated in 96-well U bottom plates at a density of 100,000 cells/well. On the same day, prodrug treated C57BL/6 BMDCs (described above) were harvested, pulsed with/without OVA peptide, irradiated at 30 Gy, and co-cultured with the CD4+ cells for 3 days at T:DC ratios of 50:1, 10:1 and 5:1, in RPMI 1640 media (supplemented with 10% FBS, 10 mM HEPES, 50 μM β-mercaptoethanol, 10 mM sodium pyruvate, 1× GlutaMAX, and 1% Pen/Strep). Subsequently, cells were stained for viability (eBioscience Fixable Viability Dye eFlour780, cat #65-0865) and CD4 (eBioscience CD4 Monoclonal Antibody (RM4-5), cat #48-0042-82), and T cell proliferation was quantified via CFSE dilution by flow cytometry.

The test system of data set [5] is Ova specific CD4+ T cells (OT-II T cells). Put plainly: OT-II CD4+ T cell proliferation after BMDC co-treatment with LNP-mRNA and prodrug-LNP. Type of data set: cell-based, mice. Particulars: BMDCs treated 48 hours with LNP-mRNA only or LNP-mRNA and separate prodrug LNP. How it is done: The mRNA used in this example is modified to minimize immune stimulation and encodes for full length Ovalbumin (Ova) protein (Trilink, L-7210). Bone marrow-derived dendritic cells (BMDCs) were prepared as previously described and co-cultured with isolated CD4+ T cells (OT-II T cells) that specifically recognize the Ova323-339 epitope loaded in H-2b MHC Class II (C57BL/6 haplotype). Proliferation was assessed based on CFSE dilution by flow cytometry. BMDCs pulsed for 4 hours with free Ova323-339 peptide (0.1 μg/mL) served as an antigen-loaded control (Free Ova Peptide), and untreated BMDCs served as the No Antigen control. 48 hours prior to co-culturing, BMDCs were treated with LNP-mRNA only or LNP-mRNA and LNP containing dexamethasone (D034) or calcitriol (D053) prodrugs.

Data set [6] can be described thus: Retention of lipid conjugate (prodrug) in LNP after incubation in human plasma. Particulars: 2 hours incubation in human plasma; DSPC/Chol/Prodrug/DSPE-PEG LNP.
Where [7] appears, read: Table 6, LNP-mRNA with lipid conjugate.

Like-named read-outs stand apart in the source and are kept apart here.

Consider `C=C1/C(=C\C=C2/CCC[C@]3(C)[C@@H]([C@H](C)CCCC(C)(C)O)CC[C@@H]23)C[C@@H](OC(=O)CCCCCCC/C=C\C[C@@H](CCCCCC)OC(=O)CCCCCCC/C=C\C/C=C\CCCCC)C[C@@H]1OC(=O)CCCCCCC/C=C\C[C@@H](CCCCCC)OC(=O)CCCCCCC/C=C\C/C=C\CCCCC` [Prodrug D087], for which, in data set [1], the “% Entrap (Dex/Calcitriol): Calcitriol” value is reported as “—/99%”, the PdI was 0.055 and the Size was 40 nm.

As for `CCCCC/C=C\C/C=C\CCCCCCCC(=O)O[C@@H](C/C=C\CCCCCCCCOC(=O)CCC(=O)OCC(=O)[C@@]1(O)[C@H](C)C[C@H]2[C@@H]3CCC4=CC(=O)C=C[C@]4(C)[C@@]3(F)[C@@H](O)C[C@@]21C)CCCCCC` [Prodrug D045, 2-((8S,9R,10S,11S,13S,14S,16R,17R)-9-fluoro-11,17-dihydroxy-10,13,16-trimethyl-3-oxo-6,7,8,9,10,11,12,13,14,15,16,17-dodecahydro-3H-cyclopenta[a]phenanthren-17-yl)-2-oxoethyl ((R,Z)-12-(linoleoyloxy)octadec-9-en-1-yl) succinate], the “lipid conjugate (prodrug) remaining in LNPs” value in data set [2] was “stably retained”.

In the case of “(1R,3S,Z)-3-hydroxy-5-(2-((1R,3aS,7aR,E)-1-((R)-6-hydroxy-6-methylheptan-2-yl)-7a-methyloctahydro-4H-inden-4-ylidene)ethylidene)-4-methylenecyclohexyl (R,Z)-12-acetoxyoctadec-9-enoate and (1S,5R,Z)-5-hydroxy-3-(2-((1R,3aS,7aR,E)-1-((R)-6-hydroxy-6-methylheptan-2-yl)-7a-methyloctahydro-4H-inden-4-ylidene)ethylidene)-2-methylenecyclohexyl (R,Z)-12-acetoxyoctadec-9-enoate [Prodrug D053]”, in data set [1], the “% Entrap (Dex/Calcitriol): Calcitriol” value is on record as “—/98%”, the PdI stood at 0.070 and the Size turned out to be 55 nm. Moreover, in data set [3] (setting [7]), the “% mRNA Entrap.” value is reported as 97% and the PDI is recorded as 0.034. Besides, the “Z-Ave (nm)” value in data set [3] (Table 6, LNP-mRNA with lipid conjugate (mol %)) was 69 nm. Besides, the “T cell proliferation induced by OVA loaded BMDCs” value in data set [4] is “significantly reduces”. For the same molecule, in data set [5], the “T-cell proliferation (CFSE dilution)” value is “suppressed”. In data set [6], the “lipid conjugate (prodrug) remaining in LNPs” value is “stably retained”.

For the origin of these results see US20240374734A1, “Immunomodulatory Combinations of Antigen and Drug-Lipid Conjugate” (Integrated Nanotherapeutics Inc., priority 2021, published 2024).
